Experiments:
melanoma cells = assay: Antifolate agents as enhancers of TMZ, MTT assay (FIG. 7); type: cell-based; details: 0.01 uM antifolate in combination with TMZ, 72 h
Method: FIG. 7 is a graph presenting the results of tests of several antifolate agents as enhancers of anti-neoplastic activity. […] Cells were treated with the indicated dose of TMZ alone, or in combination with 0.01 uM PYR, MTX (Methotrexate), TMP (Trimethoprim), TMTX (Trimetrexate), PTX (Piritrexim), and CYC (Cycloguanil). Cell growth was assessed by MTT assay after 72 h drug treatment.
Among the six “hits” identified from library screening, both PYR and triamterene are antifolate compounds.

SK-MEL 19 cells = assay: MTT cell proliferation/viability assay in SK-MEL 19 melanoma cells; type: cell-based, human; details: for sensitization to TMZ (effect on TMZ response curve): SK-MEL 19 cells
Method: Dose-response diagrams of SKM-19 cells exposed to TMZ (FIG. 2A) or pyrimethamine (PYR) (FIG. 2B) alone were prepared for comparison. Melanoma cells were exposed to the indicated concentration of TMZ or PYR for 72 hours. Cell growth inhibition was evaluated by the MTT assay. Survival relative to the control is presented as mean±standard error of the mean of at least three experiments (with viability of control cells set at 100%). In FIG. 2C, PYR enhances TMZ efficacy in various cancer cell lines. Cells were treated with indicated concentrations of TMZ or PYR at the same time and left for 72 hours. Cell viability was determined by MTT assay. SK-MeI 19, SK-Mel 100, SK-Mel 173, and SK-Mel 192 are melanoma cell lines; LN-18 and T98G are glioma cell lines. * P<0.05, **P<0.01.
(§1) FIGS. 8A-8C. PYR antifolate activity enhances TMZ chemotherapeutic efficacy. A, the growth inhibitory effects of PYR, DDEP, DDMP, CYC, and the classical antifolate MTX on TMZ response curve were examined by MTT assay in melanoma and glioma cells. […] The cytotoxic effect of the combination of TMZ (25 μg/ml) and PYR (0.5 μM) can be rescued by LV (10 μM) as examined by MTT assay (B) and the level of cleaved PARP (C) in SK-MEL 19 cells. 1. Control; 2. TMZ; 3. PYR; 4. TMZ+PYR; and 5. TMZ+PYR+LV. ** P<0.01, compared to 2, 3, or 5.
(§2) The cell growth and cytotoxicity after treatment with TMZ and/or PYR on melanoma cells and glioma cells was performed using Colorimetric MTT assay for cell survival and proliferation assay (MTT Assay Kit, Promega). Tumor cells were seeded at 3000 cells per well (100 μl volume) in 96-well plates and allowed to attach overnight. After TMZ and PYR treatment for 72 hours, the cells were stained with MTT, which is then converted to dark blue formazan crystals by mitochondrial dehydrogenases in viable cells. The plates were read with a microplate reader by measuring the absorbance of converted MTT at 490 nm. Results were expressed as the OD490 relative to that of untreated cells. Cell viability was also determined by the trypan-blue dye exclusion method.

[1] = tested on: cleaved PARP in SK-MEL 19 cells; assay: Leucovorin rescue, cleaved PARP level; type: cell-based, human; details: 10 μM LV added to cells treated with TMZ/PYR
Method: as §1
Leucovorin (N-5-formyltetrahydrofolate, LV, folinic acid), a reduced form of folate, is used widely to specifically reverse the toxic effects of antifolates (27). To further confirm that PYR-enhanced TMZ chemotherapeutic efficacy in melanoma cells was due to the antifolate activity of PYR, 10 μM LV was added to cells treated with TMZ/PYR. LV rescued both the inhibition of cell growth (FIG. 8B) and the increase in apoptotic death induced by TMZ/PYR as measured by the proteolytic cleavage of PARP by caspase-3 (FIG. 8C).

[2] = Further antifolate agents as enhancers of temozolomide activity (FIGS. 9 and 10); type: cell-based; details: FIG. 9
Method: FIG. 9 is a further graph presenting the results of tests of several antifolate agents as enhancers of anti-neoplastic activity. In the figure, N1 is pterin-6-carboxylic acid, N2 is aminopterin, N3 is amiloride and N4 is N,N-hexamethylene amiloride.
FIG. 10 presents further data from the testing of additional agents for use in accordance with the invention. Thus, TMZ was administered in combination with compounds S1-S14. The compounds tested are as follows: S1-dipyridamole. S2-methotrexate, S3-minoxidil, S4-prazosin hydrochloride, S5-pyrimethamine, S6-triamterene, S7-trimethoprim, S8-aminopterin, S9-pipemidic acid, S10-piromidic acid, S11-famciclovir, S12-alfuzocin, S13-xanthopterin, and S14-leucopterin.
In FIGS. 9 and 10, additional antifolate agents were tested, and the results indicating their activity as enhancers of TMZ activity are set forth.

[3] = cited from earlier work
[4] = tested on: human melanoma cell line SK-MEL 19; assay: Screening of Spectrum Collection library for enhancers of TMZ-induced growth inhibition (MTT assay); type: cell-based; details: SK-MEL19, 1 μM compound in presence of 50 μg/ml TMZ, 96-well plates, read-out: greater growth inhibition relative to TMZ alone
Method: FIGS. 1A and 1B. […] Screening was performed with SK-Mel-19 cells in 96-well plates following by MTT assay. Cells in one set of plate were treated with each library compound alone at 1 μM while cells in the parallel plate were treated with a combination of 1 μM library compound and 50 μg/ml TMZ. Positive candidates were later reconfirmed in triplicate.
A commercial library of 2000 drugs and natural products was screened to identify novel compounds that enhance TMZ-induced growth inhibition in the human melanoma cell line SK-MEL 19. Screening was performed in 96-well plates at final compound concentration of 1 μM, in the absence or presence of 50 μg/ml TMZ, followed by MTT assay (FIG. 1A).

[5] = cited from earlier work; remark: listed apart in the source
SK-MEL 19 = assay: Cell death by trypan blue dye exclusion; type: cell-based, human; details: clinically-relevant concentration of TMZ, PYR 0.5 μM, 72 hours
Method: Melanoma cells were exposed to the indicated concentration of TMZ, PYR or both for 72 hours. In FIG. 5A, cell death was evaluated by trypan blue dye exclusion. * P<0.05, compared to 2 or 3. In FIG. 5B, cleaved Caspase-3 was determined by Western blot analysis. 1. Control; 2. TMZ (25 μg/ml); 3. PYR (0.5 μM), and 4. TMZ and PYR combination.
as §2
To investigate whether PYR can enhance the induction of cell death by TMZ, Trypan blue staining was employed to determine the ratio of dead cells versus total cells in SK-MEL 19. […]

Structure (SMILES): CC1(C)N=C(N)N=C(N)N1c1ccc(Cl)cc1 [CYC, cycloguanil]
- enhancement of TMZ efficacy (melanoma cells): enhance TMZ efficacy

Structure (SMILES): CCc1nc(N)nc(N)c1-c1ccc(Cl)c(Cl)c1 [DDEP, etoprine]
- sensitization to TMZ (effect on TMZ response curve) (SK-MEL 19 cells; 0.005 μM antifolate, MTT): significant sensitization to TMZ

Structure (SMILES): Cc1nc(N)nc(N)c1-c1ccc(Cl)c(Cl)c1 [DDMP, metoprine]
- sensitization to TMZ (effect on TMZ response curve) (SK-MEL 19 cells; 0.005 μM antifolate, MTT): significant sensitization to TMZ

Structure (SMILES): Nc1nc2c(c(=O)[nH]1)N(C=O)C(CNc1ccc(C(=O)N[C@@H](CCC(=O)O)C(=O)O)cc1)CN2 (some centres unmarked) [LV, N-5-formyltetrahydrofolate]
- rescue of inhibition of cell growth induced by TMZ/PYR (SK-MEL 19 cells; 10 μM LV added to cells treated with TMZ (25 μg/ml)/PYR (0.5 μM), MTT): rescued
- rescue of increase in apoptotic death induced by TMZ/PYR (proteolytic cleavage of PARP) [1]: rescued

Structure (SMILES): CN(Cc1cnc2nc(N)nc(N)c2n1)c1ccc(C(=O)N[C@@H](CCC(=O)O)C(=O)O)cc1 [MTX, methotrexate]
- enhancement of TMZ efficacy (melanoma cells): enhance TMZ efficacy
- sensitization to TMZ (effect on TMZ response curve) (SK-MEL 19 cells; 0.001 μM antifolate, MTT): significant sensitization to TMZ

Structure (SMILES): Nc1nc2ncc(C(=O)O)nc2c(=O)[nH]1 [N1, pterin-6-carboxylic acid]
- enhancement of the antineoplastic activity of temozolomide [2]: favorable enhancement

Structure (SMILES): N=C(N)NC(=O)c1nc(Cl)c(N)nc1N [N3, amiloride]
- enhancement of the antineoplastic activity of temozolomide [2]: favorable enhancement

Structure (SMILES): NC(N)=NC(=O)c1nc(Cl)c(N2CCCCCC2)nc1N [N4, N,N-hexamethylene amiloride]
- enhancement of the antineoplastic activity of temozolomide [2]: favorable enhancement

Structure (SMILES): COc1ccc(OC)c(Cc2cnc3nc(N)nc(N)c3c2C)c1 [PTX, Piritrexim]
- enhancement of TMZ efficacy (melanoma cells): enhance TMZ efficacy

Structure (SMILES): CCc1nc(N)nc(N)c1-c1ccc(Cl)cc1 [PYR, pyrimethamine]
- blood-brain barrier crossing ([3]; in vivo): easily crosses the blood-brain barrier
- oral bioavailability ([3]; oral administration): bioavailable following oral administration
- inhibition at 1 µM [4]: ≥ 50%

Structure (SMILES): COc1cc(Cc2cnc(N)nc2N)cc(OC)c1OC [TMP, Trimethoprim]
- enhancement of TMZ efficacy (melanoma cells): enhance TMZ efficacy

Structure (SMILES): COc1cc(NCc2ccc3nc(N)nc(N)c3c2C)cc(OC)c1OC [TMTX, Trimetrexate]
- enhancement of TMZ efficacy (melanoma cells): enhance TMZ efficacy

Structure (SMILES): Cn1nnc2c(C(N)=O)ncn2c1=O [TMZ, temozolomide]
- IC50 (SK-MEL 19 cells; Homo sapiens, SK-MEL19, TMZ alone, SK-MEL-19 cells): ~60 µg/mL
- clinically achievable serum levels during chemotherapy [5]: 100 µM
- cell death (ratio of dead cells versus total cells) (SK-MEL 19): approximately 15%

Structure (SMILES): S=C=NCc1ccccc1 [benzyl isothiocyanate]
- inhibition at 1 µM [4]: ≥ 50%

Structure (SMILES): [H]/N=C(\N/C(=N/[H])NCCCCCCNC(=N)NC(=N)Nc1ccc(Cl)cc1)Nc1ccc(Cl)cc1 [chlorhexidine]
- inhibition at 1 µM [4]: ≥ 50%

Structure (SMILES): Oc1ccc(Cl)c2cccnc12 [cloxyquin]
- inhibition at 1 µM [4]: ≥ 50%

Structure (SMILES): Nc1nc(N)c2nc(-c3ccccc3)c(N)nc2n1 [triamterene]
- inhibition at 1 µM [4]: ≥ 50%

Source: patent US20090270397A1, “Methods and compositions for the treatment of cancers, such as melanomas and gliomas” (priority 2008, published 2009)
